Test results published in EPA's ToxRefDB 2.

Columns and labels:
rat [1] = conditions: Multigenerational reproductive toxicity study, sprague dawley, Oral, Gavage/Intubation, dose end: 2 generation
rat [2] = conditions: Prenatal developmental toxicity study, other, Oral, Gavage/Intubation, dose end: 19 GD
rat [3] = conditions: Multigenerational reproductive toxicity study, wistar, Oral, Gavage/Intubation, dose end: 2 generation
mouse = conditions: Carcinogenicity, cd1, Oral, Feed, dose end: 78 week
rat [4] = conditions: Multigenerational reproductive toxicity study, wistar, Oral, Feed, dose end: 2 generation
rabbit = conditions: Prenatal developmental toxicity study, dutch, Oral, Gavage/Intubation, dose end: 18 GD
rat [5] = conditions: Prenatal developmental toxicity study, sprague dawley, Oral, Gavage/Intubation, dose end: 15 GD
[6] = group: offspring, developmental / offspring survival late / viability index / viability index + systemic / in life observation / body weight / offspring (pup…
[7] = group: parental, systemic / pathology microscopic / liver / hypertrophy + systemic / pathology microscopic / kidney / regeneration + systemic / organ weight…
[8] = group: parental, systemic / pathology microscopic / liver / hypertrophy + systemic / pathology microscopic / kidney / regeneration + systemic / pathology …
[9] = group: developmental, developmental / developmental malformation / bone / [other] + developmental / developmental malformation / bone / bipartite ossification + …
[10] = group: maternal, systemic / in life observation / body weight / body weight gain + systemic / in life observation / food consumption / food efficiency
[11] = group: offspring, developmental / offspring survival late / lactation index / lactation index
[12] = group: parental, systemic / in life observation / body weight / body weight + systemic / in life observation / clinical signs / poor general condition
[13] = group: cholinesterase, cholinesterase / cholinesterase / cholinesterase / brain cholinesterase (che) + cholinesterase / cholinesterase / cholinesterase / …
[14] = group: systemic, systemic / in life observation / body weight / body weight + systemic / in life observation / body weight / body weight gain + systemic / in…
[15] = group: offspring, developmental / developmental landmark / preputial separation / preputial separation + systemic / in life observation / body weight / …
[16] = group: parental, systemic / pathology gross / eye / opacity + systemic / pathology microscopic / eye / inflammation + systemic / pathology microscopic / eye…
[17] = group: reproductive, reproductive / reproductive performance / estrous cycle / abnormal + reproductive / reproductive performance / estrous cycle / corpora lutea
[18] = group: developmental, systemic / in life observation / body weight / fetal weight
[19] = group: maternal, reproductive / reproductive performance / resorptions / resorptions + systemic / in life observation / body weight / body weight gain + …
[20] = group: developmental, developmental / developmental malformation / bone / [other] + developmental / developmental malformation / bone / incomplete ossification + …
[21] = group: maternal, systemic / in life observation / body weight / body weight gain

In the case of `CCN(CC)C(=O)SCc1ccc(Cl)cc1` [Thiobencarb], the LEL (rat [1]; [6]) is reported as 100 mg/kg/day, the LOAEL (rat [1]; [6]) is reported as > 100 mg/kg/day and the NEL (rat [1]; [6]) is reported as 20 mg/kg/day. The NOAEL (rat [1]; [6]) was ≥ 100 mg/kg/day, the LEL (rat [1]; [7]) was 2 mg/kg/day and the NEL (rat [1]; [7]) was < 2 mg/kg/day. For the same compound, the LOAEL (rat [1]; [8]) was 2 mg/kg/day, the NOAEL (rat [1]; [8]) was < 2 mg/kg/day and the LEL (rat [2]; [9]) was 150 mg/kg/day. For the same compound, the LOAEL (rat [2]; [9]) was 150 mg/kg/day, the NEL (rat [2]; [9]) was 25 mg/kg/day and the NOAEL (rat [2]; [9]) was 25 mg/kg/day. The LEL (rat [2]; [10]) was 150 mg/kg/day, the LOAEL (rat [2]; [10]) was 150 mg/kg/day and the NEL (rat [2]; [10]) was 25 mg/kg/day. For the same compound, the NOAEL (rat [2]; [10]) was 25 mg/kg/day.

With `N#Cc1ccc(CC(=NNC(=O)Nc2ccc(OC(F)(F)F)cc2)c2cccc(C(F)(F)F)c2)cc1` (mixture of isomers) [Metaflumizone] the LEL (rat [3]; [11]) was 50 mg/kg/day, the LOAEL (rat [3]; [11]) was 50 mg/kg/day and the NEL (rat [3]; [11]) was 20 mg/kg/day. It also gave an NOAEL (rat [3]; [11]) of 20 mg/kg/day, an LEL (rat [3]; [12]) of 50 mg/kg/day and an LOAEL (rat [3]; [12]) of 50 mg/kg/day. For the same compound, the NEL (rat [3]; [12]) was 20 mg/kg/day and the NOAEL (rat [3]; [12]) was 20 mg/kg/day.

`CCN(CC)c1nc(C)cc(OP(=S)(OC)OC)n1` [Pirimiphos-methyl] was tested, and the LEL (mouse; [13]) was 8.3 mg/kg/day, the LOAEL (mouse; [13]) was 8.3 mg/kg/day and the NEL (mouse; [13]) was < 8.3 mg/kg/day. The NOAEL (mouse; [13]) was < 8.3 mg/kg/day, the LEL (mouse; [14]) was 33 mg/kg/day and the LOAEL (mouse; [14]) was 33 mg/kg/day. It also gave an NEL (mouse; [14]) of 8.3 mg/kg/day and an NOAEL (mouse; [14]) of 8.3 mg/kg/day.

In the case of `CS(=O)(=O)c1ccc(C(=O)C2C(=O)CCCC2=O)c(Cl)c1COCC(F)(F)F` [Tembotrione], the LEL (rat [4]; [15]) is reported as 1.3 mg/kg/day, the LOAEL (rat [4]; [15]) is reported as 1.3 mg/kg/day and the NEL (rat [4]; [15]) is reported as < 1.3 mg/kg/day. The NOAEL (rat [4]; [15]) was < 1.3 mg/kg/day, the LEL (rat [4]; [16]) was 1.3 mg/kg/day and the LOAEL (rat [4]; [16]) was 1.3 mg/kg/day. For the same compound, the NEL (rat [4]; [16]) was < 1.3 mg/kg/day, the NOAEL (rat [4]; [16]) was < 1.3 mg/kg/day and the LEL (rat [4]; [17]) was 123 mg/kg/day. The LOAEL (rat [4]; [17]) was 123 mg/kg/day, the NEL (rat [4]; [17]) was 16.2 mg/kg/day and the NOAEL (rat [4]; [17]) was 16.2 mg/kg/day.

In the case of `Cc1cccc(N)c1N` [2,3-Diaminotoluene], the LEL (rabbit; [18]) is reported as 100 mg/kg/day, the LOAEL (rabbit; [18]) is reported as > 100 mg/kg/day and the NEL (rabbit; [18]) is reported as 30 mg/kg/day. The NOAEL (rabbit; [18]) was ≥ 100 mg/kg/day, the NEL (rabbit; group: maternal, reproductive / reproductive performance / resorptions / resorptions + systemic / in life observation / body weight / body weight gain) was 30 mg/kg/day and the LEL (rabbit; [19]) was 100 mg/kg/day. The LOAEL (rabbit; [19]) was > 100 mg/kg/day, the NOAEL (rabbit; [19]) was ≥ 100 mg/kg/day and the LEL (rat [5]; group: developmental, developmental / developmental malformation / bone / [other] + developmental / developmental malformation / bone / incomplete ossification) was 100 mg/kg/day. The LOAEL (rat [5]; [20]) was > 300 mg/kg/day, the NEL (rat [5]; [20]) was 30 mg/kg/day and the NOAEL (rat [5]; [20]) was ≥ 300 mg/kg/day. For the same compound, the LEL (rat [5]; [21]) was 300 mg/kg/day, the LOAEL (rat [5]; [21]) was > 300 mg/kg/day and the NEL (rat [5]; [21]) was 100 mg/kg/day. The NOAEL (rat [5]; [21]) was ≥ 300 mg/kg/day.
